Results reported in patent publication US12390441B2, “Immunomodulating o-het/aryl azalides” (Zoetis Services LLC, priority 2020, dated 2025).
Values joined by “and” are separate entries in the source; they are usually repeats but may differ in a detail not shown here. Equal entries are not always repeated.

How the values were obtained:
Assay in all cases: Whole blood assay, LPS stimulation, MSD cytokine detection
TNF-α = assay type: cell-based; settings: fresh whole bovine blood
Procedure: (§1) Compounds of the invention were evaluated against a positive control for their ability to inhibit LPS-induced IL-1p and TNF-α as an overall evaluation of relative potency and modulation of target pathways.
(§2) In the bovine whole blood in vitro screening assay the inhibition of TNFα as induced by stimulation by lipopolysaccharide (LPS) and as measured by half the maximal inhibitory concentration (IC50) is recognized as the primary biomarker of immunomodulation potency upon pretreatment with the compounds of the invention. IL-1β is a mediator of the inflammation response and is involved in a number of cellular activities including proliferation, differentiation and apoptosis. IL-1β is also released upon cellular stress or cytotoxicity or upon TLR stimulation. In the bovine whole blood assay the stimulation of IL-1β release upon increasing concentration of test compound is seen as a potential cellular toxicity signal as induced by the test compound. In order to estimate a therapeutic index from the in vitro assay a differential between the TNFα IC50 (immunomodulation potency) versus the perceived cellular toxicity concentration (IL-1β release or overstimulation) was utilized. […] As the in vitro assay index approaches 1 it is proposed that the balance between immunomodulation and cytotoxicity would be too narrow in order to achieve an efficacious dose in vivo.

IL-1β = assay type: cell-based, bovine; settings: fresh whole bovine blood, LPS stimulation; drug concentration giving overstimulation (OS) of IL-1β
Procedure: as §1, §2

IL-6 = assay type: cell-based; settings: fresh whole bovine blood

| Compound | IC50 (TNF-α) | IL-1ß OS of LPS (IL-1β) | IC50 (IL-6) |
| --- | --- | --- | --- |
| CC[C@H]1OC(=O)[C@H](C)[C@@H](O[C@H]2C[C@@](C)(OC)[C@@H](O)[C@H](C)O2)[C@H](C)[C@@H](O[C@@H]2O[C@H](C)C[C@H](N(C)C)[C@H]2Oc2ccc(F)cc2)[C@](C)(O)C[C@@H](C)CN(C)[C@H](C)[C@@H](O)[C@]1(C)O [Example A-23] | 5 µM | 6 µM | 50 µM |
| CC[C@H]1OC(=O)[C@H](C)[C@@H](O[C@H]2C[C@@](C)(OC)[C@@H](O)[C@H](C)O2)[C@H](C)[C@@H](O[C@@H]2O[C@H](C)C[C@H](N(C)C)[C@H]2Oc2ccc3ccncc3c2)[C@](C)(O)C[C@@H](C)CN(C)[C@H](C)[C@@H](O)[C@]1(C)O [Example A-24] | 19 µM | 40 µM | 24 µM |
| CC[C@H]1OC(=O)[C@H](C)[C@@H](O[C@H]2C[C@@](C)(OC)[C@@H](O)[C@H](C)O2)[C@H](C)[C@@H](O[C@@H]2O[C@H](C)C[C@H](N(C)C)[C@H]2Oc2ccc(F)c(C#N)c2)[C@](C)(O)C[C@@H](C)CN(C)[C@H](C)[C@@H](O)[C@]1(C)O [Example A-25] | 3 µM | 16 µM | 12 µM |
| CC[C@H]1OC(=O)[C@H](C)[C@@H](O[C@H]2C[C@@](C)(OC)[C@@H](O)[C@H](C)O2)[C@H](C)[C@@H](O[C@@H]2O[C@H](C)C[C@H](N(C)C)[C@H]2Oc2cnc3ccccc3c2)[C@](C)(O)C[C@@H](C)CN(C)[C@H](C)[C@@H](O)[C@]1(C)O [Example A-28] | 3 µM | 16 µM | 11 µM |
| CC[C@H]1OC(=O)[C@H](C)[C@@H](O[C@H]2C[C@@](C)(OC)[C@@H](O)[C@H](C)O2)[C@H](C)[C@@H](O[C@@H]2O[C@H](C)C[C@H](NC)[C@H]2Oc2cnc(Cl)cc2C)[C@](C)(O)C[C@@H](C)CN(C)[C@H](C)[C@@H](O)[C@]1(C)O [Example A-29] | 7 µM | 10 µM | 9 µM |
| CC[C@H]1OC(=O)[C@H](C)[C@@H](O[C@H]2C[C@@](C)(OC)[C@@H](O)[C@H](C)O2)[C@H](C)[C@@H](O[C@@H]2O[C@H](C)C[C@H](NC)[C@H]2Oc2ccc(OC)c(OC(C)C)c2)[C@](C)(O)C[C@@H](C)CN(C)[C@H](C)[C@@H](O)[C@]1(C)O [Example A-34] | 4 µM | >250 µM | 21 µM |
| CC[C@H]1OC(=O)[C@H](C)[C@@H](O[C@H]2C[C@@](C)(OC)[C@@H](O)[C@H](C)O2)[C@H](C)[C@@H](O[C@@H]2O[C@H](C)C[C@H](N(C)C)[C@H]2Oc2cc(OC)ccc2OC)[C@](C)(O)C[C@@H](C)CN(C)[C@H](C)[C@@H](O)[C@]1(C)O [Example A-35] | 4 µM | 40 µM | 11 µM |
| CC[C@H]1OC(=O)[C@H](C)[C@@H](O[C@H]2C[C@@](C)(OC)[C@@H](O)[C@H](C)O2)[C@H](C)[C@@H](O[C@@H]2O[C@H](C)C[C@H](NC)[C@H]2Oc2ccccc2C#N)[C@](C)(O)C[C@@H](C)CN(C)[C@H](C)[C@@H](O)[C@]1(C)O [Example A-36] | 13 µM | 100 µM | 13 µM |
| CC[C@H]1OC(=O)[C@H](C)[C@@H](O[C@H]2C[C@@](C)(OC)[C@@H](O)[C@H](C)O2)[C@H](C)[C@@H](O[C@@H]2O[C@H](C)C[C@H](NC)[C@H]2Oc2cccc(S(=O)(=O)CC)c2)[C@](C)(O)C[C@@H](C)CN(C)[C@H](C)[C@@H](O)[C@]1(C)O [Example A-41] | 5 µM | 16 µM | 19 µM |
| CC[C@H]1OC(=O)[C@H](C)[C@@H](O[C@H]2C[C@@](C)(OC)[C@@H](O)[C@H](C)O2)[C@H](C)[C@@H](O[C@@H]2O[C@H](C)C[C@H](N(C)C)[C@H]2Oc2cnc(Cl)cc2C)[C@](C)(O)C[C@@H](C)CN(C)[C@H](C)[C@@H](O)[C@]1(C)O [Example A-45] | 4 µM | 40 µM | 12 µM |
| CC[C@H]1OC(=O)[C@H](C)[C@@H](O)[C@H](C)[C@@H](O[C@@H]2O[C@H](C)C[C@H](N(C)C(=O)N(C)c3ccccc3)[C@H]2Oc2ccc(F)c(C(F)(F)F)c2)[C@](C)(O)C[C@@H](C)CN(C)[C@H](C)[C@@H](O)[C@]1(C)O [Example C-10] | 22 µM | 40 µM |  |
| CC[C@H]1OC(=O)[C@H](C)[C@@H](O)[C@H](C)[C@@H](O[C@@H]2O[C@H](C)C[C@H](N(C)C(=O)N(C)c3ncccn3)[C@H]2Oc2ccccc2)[C@](C)(O)C[C@@H](C)CN(C)[C@H](C)[C@@H](O)[C@]1(C)O [Example C-17] | 38 µM | 44 µM | 63 µM |
| CC[C@H]1OC(=O)[C@H](C)[C@@H](O)[C@H](C)[C@@H](O[C@@H]2O[C@H](C)C[C@H](N(C)C(=O)N(C)C3CCC3)[C@H]2Oc2ccccc2)[C@](C)(O)C[C@@H](C)CN[C@H](C)[C@@H](O)[C@]1(C)O [Example C-21] | 28 µM | 8 µM | 18 µM |
| CC[C@H]1OC(=O)[C@H](C)[C@@H](O)[C@H](C)[C@@H](O[C@@H]2O[C@H](C)C[C@H](N(C)C(=O)N(C)c3ncccn3)[C@H]2Oc2ccccc2)[C@](C)(O)C[C@@H](C)CN(C)[C@H](C)[C@@H](O)[C@]1(C)O [Example C-22] | 94 µM | 100 µM | 151 µM |
| CCCNC[C@]1(O)[C@H](C)O[C@@H](O[C@H]2[C@H](C)[C@@H](O[C@@H]3O[C@H](C)C[C@H](NC)[C@H]3Oc3ccc(OC)c(F)c3)[C@](C)(O)C[C@@H](C)CN[C@H](C)[C@@H](O)[C@](C)(O)[C@@H](CC)OC(=O)[C@@H]2C)C[C@@]1(C)OC [Example E-10] | 30 µM | 40 µM |  |
| CCCNC[C@]1(O)[C@H](C)O[C@@H](O[C@H]2[C@H](C)[C@@H](O[C@@H]3O[C@H](C)C[C@H](NC)[C@H]3Oc3cc(OC)c(OC)c(OC)c3)[C@](C)(O)C[C@@H](C)CN[C@H](C)[C@@H](O)[C@](C)(O)[C@@H](CC)OC(=O)[C@@H]2C)C[C@@]1(C)OC [Example E-11] | 70 µM | 250 µM |  |
| CCCNC[C@]1(O)[C@H](C)O[C@@H](O[C@H]2[C@H](C)[C@@H](O[C@@H]3O[C@H](C)C[C@H](NC)[C@H]3Oc3ccc(OCC)cc3)[C@](C)(O)C[C@@H](C)CN[C@H](C)[C@@H](O)[C@](C)(O)[C@@H](CC)OC(=O)[C@@H]2C)C[C@@]1(C)OC [Example E-12] | 40 µM | 40 µM |  |
| CCCNC[C@]1(O)[C@H](C)O[C@@H](O[C@H]2[C@H](C)[C@@H](O[C@@H]3O[C@H](C)C[C@H](N(C)C)[C@H]3Oc3cnc(OC)nc3)[C@](C)(O)C[C@@H](C)CN[C@H](C)[C@@H](O)[C@](C)(O)[C@@H](CC)OC(=O)[C@@H]2C)C[C@@]1(C)OC [Example E-27] | 65 µM | 100 µM |  |
| CCCNC[C@]1(O)[C@H](C)O[C@@H](O[C@H]2[C@H](C)[C@@H](O[C@@H]3O[C@H](C)C[C@H](N(C)C)[C@H]3Oc3ccc(OC)cc3)[C@](C)(O)C[C@@H](C)CN[C@H](C)[C@@H](O)[C@](C)(O)[C@@H](CC)OC(=O)[C@@H]2C)C[C@@]1(C)OC [Example E-43] | 16 µM | 40 µM |  |
| CCCNC[C@]1(O)[C@H](C)O[C@@H](O[C@H]2[C@H](C)[C@@H](O[C@@H]3O[C@H](C)C[C@H](N(C)C)[C@H]3Oc3ccc(F)cc3)[C@](C)(O)C[C@@H](C)CN[C@H](C)[C@@H](O)[C@](C)(O)[C@@H](CC)OC(=O)[C@@H]2C)C[C@@]1(C)OC [Example E-48] | 13 µM | 40 µM |  |
| CC[C@H]1OC(=O)[C@H](C)[C@@H](O[C@H]2C[C@@](C)(OC)[C@](O)(CNCC3CC3)[C@H](C)O2)[C@H](C)[C@@H](O[C@@H]2O[C@H](C)C[C@H](N(C)C)[C@H]2Oc2ccccc2)[C@](C)(O)C[C@@H](C)CN[C@H](C)[C@@H](O)[C@]1(C)O [Example E-87] |  | 16 µM and 26 µM | 18 µM and 19 µM |
| CCCNC[C@]1(O)[C@H](C)O[C@@H](O[C@H]2[C@H](C)[C@@H](O[C@@H]3O[C@H](C)C[C@H](NC)[C@H]3Oc3cccc(OC)c3)[C@](C)(O)C[C@@H](C)CN[C@H](C)[C@@H](O)[C@](C)(O)[C@@H](CC)OC(=O)[C@@H]2C)C[C@@]1(C)OC [Example E-94] | 30 µM | 40 µM |  |
| CC[C@H]1OC(=O)[C@H](C)[C@@H](O[C@H]2C[C@@](C)(OC)[C@](O)(CNC3CCC3)[C@H](C)O2)[C@H](C)[C@@H](O[C@@H]2O[C@H](C)C[C@H](NC)[C@H]2Oc2ccccc2)[C@](C)(O)C[C@@H](C)CN[C@H](C)[C@@H](O)[C@]1(C)O [Example E-126] | 14 µM | 40 µM |  |
| CC[C@H]1OC(=O)[C@H](C)[C@@H](O[C@H]2C[C@@](C)(OC)[C@](O)(CNCCN(C)C)[C@H](C)O2)[C@H](C)[C@@H](O[C@@H]2O[C@H](C)C[C@H](NC)[C@H]2Oc2ccccc2)[C@](C)(O)C[C@@H](C)CN[C@H](C)[C@@H](O)[C@]1(C)O [Example E-129] | 75 µM | 250 µM |  |
| CC[C@H]1OC(=O)[C@H](C)[C@@H](O[C@H]2C[C@@](C)(OC)[C@](O)(CNn3cccn3)[C@H](C)O2)[C@H](C)[C@@H](O[C@@H]2O[C@H](C)C[C@H](NC)[C@H]2Oc2ccccc2)[C@](C)(O)C[C@@H](C)CN[C@H](C)[C@@H](O)[C@]1(C)O [Example E-139] | 5 µM | 6 µM |  |
